In patent US10925855B2, “Compositions comprising water dispersible nanoparticles of a retinoid compound” (GALDERMA RESEARCH & DEVELOPMENT, priority 2015, dated 2021):

Legend:
Precipitation test = format: physicochemical; details: every tested organic solvent at 1 mg/mL concentration
Method: 1 mg/ml solutions of compound A were prepared in each appropriate solvent.

[1] = Stabilizer screening (colloid stability after precipitation); format: physicochemical; details: Compound A 1.0 mg
Method: If the colloid solution was stable over 2 hours (no aggregation, sedimentation, crystal forming), and no aggregation occurred, the sample was lyophilized. • If precipitation occurred, however the colloid solution was not stable over the whole solid formulation procedure, other stabilizers were tested. Results

precipitation on addition of anti-solvent (Precipitation test): precipitated | Observation ([1]; 2 mg Klucel EF, 1 mL EtOH, 4 mL water): Aggregated | Observation ([1]; 2 mg Klucel EF, 1 mL IPA, 4 mL water): Aggregated | Observation ([1]; 2 mg Klucel EF, 1 mL MeOH, 4 mL water): Aggregated | Observation ([1]; 2 mg Klucel EF, 1 mL THF, 4 mL water): Aggregated | Observation ([1]; 2 mg Klucel LF, 1 mL EtOH, 4 mL water): Aggregated | Observation ([1]; 2 mg Klucel LF, 1 mL IPA, 4 mL water): Aggregated | Observation ([1]; 2 mg Klucel LF, 1 mL MeOH, 4 mL water): Aggregated | Observation ([1]; 2 mg Klucel LF, 1 mL THF, 4 mL water): Aggregated | Observation ([1]; 2 mg Lutrol F 127, 1 mL ACE, 4 mL water): Aggregated immediately | Observation ([1]; 2 mg Lutrol F 127, 1 mL EtOH, 4 mL water): Aggregated | Observation ([1]; 2 mg Lutrol F 127, 1 mL MeOH, 4 mL water): Cloudy immediately | Observation ([1]; 2 mg Lutrol F 127, 1 mL THF, 5 mL water): Aggregated | Observation: Aggregated within ([1]; 2 mg Luviskol VA64, 1 mL ACE, 4 mL water): Aggregated within 5 min | Observation: Colloid, Stable for ([1]; 2 mg Luviskol VA64, 1 mL EtOH, 4 mL water): Colloid, Stable for 30 min | Observation ([1]; 2 mg Luviskol VA64, 1 mL EtOH, 7 mL 0.05 mg/mL BAC solution): Aggregated immediately | Observation ([1]; 2 mg Luviskol VA64, 1 mL EtOH, 7 mL 0.05 mg/mL DSS solution): Aggregated immediately | Observation ([1]; 2 mg Luviskol VA64, 1 mL EtOH, 7 mL 0.05 mg/mL Mannitol solution): Aggregated immediately | Observation ([1]; 2 mg Luviskol VA64, 1 mL EtOH, 7 mL 0.05 mg/mL NaOAc solution): Aggregated immediately | Observation ([1]; 2 mg Luviskol VA64, 1 mL EtOH, 7 mL 0.05 mg/mL SDS solution): Aggregated immediately | Observation ([1]; 2 mg Luviskol VA64, 1 mL EtOH, 7 mL 0.05 mg/mL citric acid solution): Aggregated immediately | Observation ([1]; 2 mg Luviskol VA64, 1 mL EtOH, 7 mL 0.5 mg/mL BAC solution): Aggregated immediately | Observation: Aggregated within ([1]; 2 mg Luviskol VA64, 1 mL EtOH, 7 mL 0.5 mg/mL DSS solution): Aggregated within 1 hour | Observation ([1]; 2 mg Luviskol VA64, 1 mL EtOH, 7 mL 0.5 mg/mL Mannitol solution): Aggregated immediately | Observation: Stable for ([1]; 2 mg Luviskol VA64, 1 mL EtOH, 7 mL 0.5 mg/mL NaOAc solution, at RT): Stable for 1 day at RT | Observation: Aggregated within ([1]; 2 mg Luviskol VA64, 1 mL EtOH, 7 mL 0.5 mg/mL SDS solution): Aggregated within 1 hour | Observation ([1]; 2 mg Luviskol VA64, 1 mL EtOH, 7 mL 0.5 mg/mL citric acid solution): Aggregated immediately | Observation ([1]; 2 mg Luviskol VA64, 1 mL IPA, 4 mL water): Aggregated | Observation: Aggregated after ([1]; 2 mg Luviskol VA64, 1 mL MeOH, 4 mL water): Aggregated after 25 min | Observation ([1]; 2 mg Luviskol VA64, 1 mL THF, 4 mL water): Aggregated | Observation ([1]; 2 mg PEG2000, 1 mL ACE, 4 mL water): Aggregated immediately | Observation ([1]; 2 mg PEG2000, 1 mL EtOH, 4 mL water): Aggregated | Observation ([1]; 2 mg PEG2000, 1 mL IPA, 4 mL water): Aggregated | Observation ([1]; 2 mg PEG2000, 1 mL MeOH, 4 mL water): Aggregated | Observation ([1]; 2 mg PEG2000, 1 mL THF, 4 mL water): Aggregated | Observation ([1]; 2 mg PEG6000, 1 mL ACE, 4 mL water): Aggregated immediately | Observation ([1]; 2 mg PEG6000, 1 mL EtOH, 4 mL water): Aggregated | Observation ([1]; 2 mg PEG6000, 1 mL MeOH, 4 mL water): Aggregated | Observation: Aggregated within ([1]; 2 mg PEOX50, 1 mL ACE, 4 mL water): Aggregated within 5 min | Observation: Colloid, Stable for ([1]; 2 mg PEOX50, 1 mL EtOH, 4 mL water): Colloid, Stable for 10 min | Observation: Aggregated within ([1]; 2 mg PEOX50, 1 mL EtOH, 7 mL 0.5 mg/mL DSS solution): Aggregated within 1 hour | Observation: Aggregated within ([1]; 2 mg PEOX50, 1 mL EtOH, 7 mL 0.5 mg/mL NaOAc solution): Aggregated within 1 hour | Observation: Aggregated within ([1]; 2 mg PEOX50, 1 mL EtOH, 7 mL 0.5 mg/mL SDS solution): Aggregated within 1 hour | Observation ([1]; 2 mg PEOX50, 1 mL EtOH, 7 mL 0.5 mg/mL citric acid solution): Aggregated immediately | Observation ([1]; 2 mg PEOX50, 1 mL IPA, 4 mL water): Aggregated | Observation ([1]; 2 mg PEOX50, 1 mL MeOH, 4 mL water): Aggregated | Observation ([1]; 2 mg PEOX50, 1 mL THF, 4 mL water): Aggregated | Observation: Aggregated within ([1]; 2 mg PEOX500, 1 mL ACE, 4 mL water): Aggregated within 5 min | Observation ([1]; 2 mg PEOX500, 1 mL EtOH, 4 mL water): Aggregated | Observation ([1]; 2 mg PEOX500, 1 mL IPA, 4 mL water): Aggregated | Observation ([1]; 2 mg PEOX500, 1 mL MeOH, 4 mL water): Aggregated | Observation ([1]; 2 mg PEOX500, 1 mL THF, 4 mL water): Aggregated | Observation ([1]; 2 mg PMAMVE, 1 mL EtOH, 4 mL water): Aggregated | Observation ([1]; 2 mg PMAMVE, 1 mL MeOH, 4 mL water): Aggregated | Observation: Colloid, Stable for ([1]; 2 mg PVP10, 1 mL EtOH, 4 mL water): Colloid, Stable for 30 min | Observation ([1]; 2 mg PVP10, 1 mL EtOH, 7 mL 0.05 mg/mL BAC solution): Aggregated immediately | Observation ([1]; 2 mg PVP10, 1 mL EtOH, 7 mL 0.05 mg/mL DSS solution): Aggregated immediately | Observation ([1]; 2 mg PVP10, 1 mL EtOH, 7 mL 0.05 mg/mL Mannitol solution): Aggregated immediately | Observation ([1]; 2 mg PVP10, 1 mL EtOH, 7 mL 0.05 mg/mL NaOAc solution): Aggregated immediately | Observation ([1]; 2 mg PVP10, 1 mL EtOH, 7 mL 0.05 mg/mL SDS solution): Aggregated immediately | Observation ([1]; 2 mg PVP10, 1 mL EtOH, 7 mL 0.05 mg/mL citric acid solution): Aggregated immediately | Observation ([1]; 2 mg PVP10, 1 mL EtOH, 7 mL 0.5 mg/mL BAC solution): Aggregated immediately | Observation: Aggregated within ([1]; 2 mg PVP10, 1 mL EtOH, 7 mL 0.5 mg/mL DSS solution): Aggregated within 1 hour | Observation ([1]; 2 mg PVP10, 1 mL EtOH, 7 mL 0.5 mg/mL Mannitol solution): Aggregated immediately | Observation ([1]; 2 mg PVP10, 1 mL EtOH, 7 mL 0.5 mg/mL NaOAc solution): Aggregated immediately | Observation: Aggregated within ([1]; 2 mg PVP10, 1 mL EtOH, 7 mL 0.5 mg/mL SDS solution): Aggregated within 1 hour | Observation ([1]; 2 mg PVP10, 1 mL IPA, 4 mL water): Aggregated | Observation ([1]; 2 mg PVP10, 1 mL MeOH, 4 mL water): Precipitation did not occur | Observation: Colloid, Stable for ([1]; 2 mg PVP40, 1 mL EtOH, 4 mL water): Colloid, Stable for 15 min
SMILES: CC(C)(C)c1cc(-c2cc(-c3ccc(C(=O)O)cc3)ccc2OCCO)ccc1N1CCCC1 [Compound A, 3″-tert-butyl-4′-(2-hydroxyethoxy)-4″-pyrrolidin-1-yl[1,1′;3′,1″]-terphenyl-4-carboxylic acid]
